Laboratory results as given in patent US11872196B2, “Use of cannabidiol in treatment of pulmonary hypertension” (DEYI PHARMARMACEUTICAL LTD., priority 2017, dated 2024).

Key:
[1] = tested on: C57BL/6 mice with pulmonary arterial hypertension caused by hypoxia; test: Right ventricular hypertrophy (RVH) index RV/(LV+S) in hypoxia PAH mice; format: in vivo, mouse; conditions: 7 days, model group 32.62±1.41, normoxia 25.99±1.17, mean±standard error
Method: (§1) Healthy and lively C57BL/6 mice at the age of 4-6 weeks, with glossy hair colors, and body weights of (25.15±2.15) g (Laboratory Animal Center of Academy of Military Medical Sciences, SPF grade). The mice were divided into four groups: • Group 1 (wild-type normoxia, used as a control group): 10 female mice and 10 male mice under normoxia conditions; • Group 2 (wild-type hypoxia, used as a control group): 10 female mice and 10 male mice under hypoxia conditions; • Group 3 (10 mg/kg, used as an experimental group): 10 female mice and 10 male mice were treated with 10 mg/kg by gavage under hypoxia conditions; • Group 4 (50 mg/kg, used as an experimental group): 10 female mice and 10 male mice were treated with 50 mg/kg by gavage under hypoxia conditions.
The mice of groups 2-4 were placed in an animal feeding chamber under normal pressure and hypoxia, the oxygen concentration in the chamber was maintained at 9%-11%, and the temperature in the chamber was maintained at 22-26° C. The mice of group 1 inhaled normal atmosphere air, and the other conditions were the same as those for mice of groups 2-4. […]

[2] = tested on: C57BL/6 mice with pulmonary arterial hypertension caused by hypoxia; test: Pathological changes of pulmonary arterioles (HE and elastic fiber staining, vascular remodeling rate) in hypoxia PAH mice; format: in vivo, mouse
Method: as §1
The mice of groups 2-4 were placed in an animal feeding chamber under normal pressure and hypoxia, the oxygen concentration in the chamber was maintained at 9%-11%, and the temperature in the chamber was maintained at 22-26° C. The mice of group 1 inhaled normal atmosphere air, and the other conditions were the same as those for mice of groups 2-4.
In order to explore whether CBD has a therapeutic effect on pulmonary arterial hypertension or not, the inventor first treated mice for 14 days in a continuous hypoxia environment to establish a model of pulmonary arterial hypertension (the groups 2-4), and then administration was started from day 15 to day 21 through gavage once a day, the mice were treated every day for 7 days (the group 3-4), and detection was performed on day 21.
Sample: paraffin sections of mouse lung tissue.
Objective: observing the pathology of lung tissues to detect whether there is a vascular wall thickening phenomenon or not.

MgI2 = test: LPS-induced primary alveolar macrophages, MgI2 expression by fluorescence quantitative PCR; format: cell-based, mouse; conditions: 0.5, 1, 5 μM CBD pre-treatment 0.5 h, then 100 ng/mL LPS, 5 h
Text: (§2) Primary alveolar macrophages were isolated according to the method by Yang et al. (Yang, H. M., Ma, J. Y., Castranova, V., and Ma, J. K. (1997). Effects of diesel exhaust particles on the release of interleukin-1 and tumor necrosis factor-alpha from rat alveolar macrophages. Experimental lung research 23, 269-284): two-month-old mice were taken and injected intraperitoneally with pentobarbital to be anesthetized. The mice were fixed at a supine position, and disinfected at the neck, and the neck skin was cut open to strip gland muscles and expose the trachea. A small opening was cut in an upper part of the trachea without cutting off. A small white pipette tip was inserted onto a 1 ml pipette to pipette 1 ml PBS at 4° C. (free of Ca^2+, free of Mg^2+, […]) [50 ml PBS+0.00876 g EDTA] into the lung from the opening, and then pipetted out from the opening after blowing in. Then fresh PBS was taken and pipetted into and out from the opening repeatedly for 3-4 times. The collected alveolar irrigation solution was centrifuged at 200×g for 5 minutes, and the supernatant was discarded. The cells were washed once with a serum-free RPMI-1640 culture medium and centrifuged at 200×g for 5 minutes. The cells were resuspended by adding a serum-containing RPMI-1640 and then inoculated. The cells were subjected to adherence for 2 h, and then washed for three times with PBS. […]

IL-6 = test: LPS-induced primary alveolar macrophages, IL-6 expression by fluorescence quantitative PCR; format: cell-based, mouse; conditions: 0.5, 1, 5 μM CBD pre-treatment 0.5 h, then 100 ng/mL LPS, 5 h; dose-dependent
Text: as §2

[3] = tested on: C57BL/6 mice with pulmonary arterial hypertension caused by hypoxia; test: Right ventricular systolic pressure (RVSP) in mice with pulmonary arterial hypertension caused by hypoxia; format: in vivo, mouse; conditions: day 15 to 21 of continuous hypoxia, detection on day 21, hypoxia model control 25.55±2.29, normoxia 17.54±1.48, mean±standard error
Method: as §1, with “conditions. […]” for “conditions.”
On day 21, the mice were anesthetized by intraperitoneal injection of sodium pentobarbital (35 mg/kg), and the right ventricular systolic pressure was measured by using a catheter matched with a physiological instrument with reference to the right-heart catheterization reported by Song et al. (Song, Y., Jones, J. E., Beppu, H., Keaney, J. F., Jr., Loscalzo, J., and Zhang, Y. Y. (2005). Increased susceptibility to pulmonary hypertension in heterozygous BMPR2-mutant mice. Circulation 112, 553-562). […] After the catheter entered the right ventricle, RVSP was determined and recorded.

TNF-α = test: LPS-induced primary alveolar macrophages, TNF-α expression by fluorescence quantitative PCR; format: cell-based, mouse; conditions: 0.5, 1, 5 μM CBD pre-treatment 0.5 h, then 100 ng/mL LPS, 5 h; dose-dependent
Text: as §2

[4] = after CBD treatment (10 and 50 mg/kg by gavage) versus hypoxia model group
[5] = both dose groups (10 and 50 mg/kg)

C=C(C)[C@@H]1CCC(C)=C[C@H]1c1c(O)cc(CCCCC)cc1O [CBD, Cannabidiol]
right ventricular hypertrophy index (right heart index) ([1]; 10 mg/kg by gavage): 30.18±1.01% | right ventricular hypertrophy index (right heart index) ([1]; 50 mg/kg by gavage): 29.90±1.19% | pulmonary arteriole remodeling [2, 4]: significantly reduced | vascular remodeling rate [2, 4]: significantly reduced | arterial medial wall thickness ratio [2, 5]: reduction | vascular wall medial cross-sectional area ratio [2, 5]: reduction | expression of MgI2, a gene that inhibited inflammation (MgI2): promote | expression of LPS-induced IL-6 (IL-6): significantly inhibit | mean right ventricular systolic pressure ([3]; 10 mg/kg by gavage once a day): 16.90±2.31 mmHg | mean right ventricular systolic pressure ([3]; 50 mg/kg by gavage once a day): 17.92±2.37 mmHg | expression of LPS-induced TNF-α (TNF-α): significantly inhibit
